Measurements taken from US20250368666A1, “INDAZOLE COMPOUNDS” (TYRA BIOSCIENCES, INC., priority 2022, published 2025).

Experiments:
Assay in all cases: Kinase binding assay (kinase-tagged T7 phage, affinity beads, qPCR), Kd
FGFR2 = target: T1, FGFR2 (Homo sapiens, UniProt P21802); conditions: read-out: FGFR2 (Kd nM)
T1 construct: made in house; host or cells: E. coli (BL21-derived), T7 phage
Summary of the method: (§1)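 Competition binding of compounds against kinase-tagged T7 phage captured on immobilised biotinylated ligand beads; bead-bound kinase quantified by qPCR of eluates. 11-point 3-fold dilution, 0.9% DMSO final; Kd from Hill fit with slope fixed at −1.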

FGFR3 = target: T2, FGFR3 (Homo sapiens, UniProt P22607); conditions: read-out: FGFR3 (Kd nM)
T2 construct: made in house; host or cells: E. coli (BL21-derived), T7 phage
T2 sequence (P22607 23-806): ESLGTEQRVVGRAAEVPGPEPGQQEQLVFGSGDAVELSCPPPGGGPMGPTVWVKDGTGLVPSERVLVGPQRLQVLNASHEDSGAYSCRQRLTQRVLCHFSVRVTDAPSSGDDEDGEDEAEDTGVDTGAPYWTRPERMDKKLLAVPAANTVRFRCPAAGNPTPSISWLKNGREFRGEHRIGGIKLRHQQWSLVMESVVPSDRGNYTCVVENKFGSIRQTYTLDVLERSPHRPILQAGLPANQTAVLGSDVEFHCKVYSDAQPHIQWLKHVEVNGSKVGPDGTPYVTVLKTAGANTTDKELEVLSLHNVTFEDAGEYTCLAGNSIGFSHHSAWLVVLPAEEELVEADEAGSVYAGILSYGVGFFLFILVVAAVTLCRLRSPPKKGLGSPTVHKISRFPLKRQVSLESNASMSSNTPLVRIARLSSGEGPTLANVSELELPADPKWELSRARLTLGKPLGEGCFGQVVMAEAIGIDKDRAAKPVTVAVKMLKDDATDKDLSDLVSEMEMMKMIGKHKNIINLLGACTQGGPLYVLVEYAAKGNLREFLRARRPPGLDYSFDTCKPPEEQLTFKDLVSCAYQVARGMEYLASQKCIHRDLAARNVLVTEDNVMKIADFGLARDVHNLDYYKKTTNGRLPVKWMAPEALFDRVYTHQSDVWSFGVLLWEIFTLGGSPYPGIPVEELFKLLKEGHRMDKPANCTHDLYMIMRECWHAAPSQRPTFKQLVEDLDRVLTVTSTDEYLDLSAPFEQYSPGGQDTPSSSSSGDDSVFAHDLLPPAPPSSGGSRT
Summary of the method: as §1

FGFR4 = target: T3, FGFR4 (Homo sapiens, UniProt P22455); conditions: read-out: FGFR4 (Kd nM)
T3 construct: made in house; host or cells: E. coli (BL21-derived), T7 phage
T3 sequence (P22455 22-802): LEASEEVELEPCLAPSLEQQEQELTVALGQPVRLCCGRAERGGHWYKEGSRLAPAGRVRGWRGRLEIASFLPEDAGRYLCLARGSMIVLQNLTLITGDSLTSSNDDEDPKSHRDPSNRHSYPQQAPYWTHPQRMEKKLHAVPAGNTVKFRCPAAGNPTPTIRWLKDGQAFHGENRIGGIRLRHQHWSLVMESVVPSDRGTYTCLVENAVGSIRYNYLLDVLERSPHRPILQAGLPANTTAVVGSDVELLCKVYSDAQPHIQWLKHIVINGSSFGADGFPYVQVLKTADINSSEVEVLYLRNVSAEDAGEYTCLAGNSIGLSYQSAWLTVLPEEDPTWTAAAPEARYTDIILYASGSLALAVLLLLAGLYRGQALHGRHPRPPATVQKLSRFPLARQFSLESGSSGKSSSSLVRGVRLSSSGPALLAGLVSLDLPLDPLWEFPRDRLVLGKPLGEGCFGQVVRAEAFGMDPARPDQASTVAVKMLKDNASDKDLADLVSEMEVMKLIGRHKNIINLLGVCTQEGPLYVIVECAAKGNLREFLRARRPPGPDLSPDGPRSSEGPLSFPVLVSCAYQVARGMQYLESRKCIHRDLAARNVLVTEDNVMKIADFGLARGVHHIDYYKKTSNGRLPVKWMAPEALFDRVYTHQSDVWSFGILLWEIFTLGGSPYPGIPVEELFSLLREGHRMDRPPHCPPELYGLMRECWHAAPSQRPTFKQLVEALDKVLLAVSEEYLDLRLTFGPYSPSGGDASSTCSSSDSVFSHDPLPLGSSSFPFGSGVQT
Summary of the method: as §1

FGFR3 (V555M) = target: T4, FGFR3 (V555M) (Homo sapiens, UniProt P22607, V555M); conditions: V555M mutant; read-out: FGFR3 (V555M) (Kd nM)
T4 construct: made in house; host or cells: E. coli (BL21-derived), T7 phage
T4 sequence (P22607 23-806 V555M): as the sequence (P22607 23-806) above, with V533M counted along it
Summary of the method: as §1

FGFR1 = target: T5, FGFR1 (Homo sapiens, UniProt P11362); conditions: read-out: FGFR1 (Kd nM)
T5 construct: made in house; host or cells: E. coli (BL21-derived), T7 phage
T5 sequence (P11362 22-822): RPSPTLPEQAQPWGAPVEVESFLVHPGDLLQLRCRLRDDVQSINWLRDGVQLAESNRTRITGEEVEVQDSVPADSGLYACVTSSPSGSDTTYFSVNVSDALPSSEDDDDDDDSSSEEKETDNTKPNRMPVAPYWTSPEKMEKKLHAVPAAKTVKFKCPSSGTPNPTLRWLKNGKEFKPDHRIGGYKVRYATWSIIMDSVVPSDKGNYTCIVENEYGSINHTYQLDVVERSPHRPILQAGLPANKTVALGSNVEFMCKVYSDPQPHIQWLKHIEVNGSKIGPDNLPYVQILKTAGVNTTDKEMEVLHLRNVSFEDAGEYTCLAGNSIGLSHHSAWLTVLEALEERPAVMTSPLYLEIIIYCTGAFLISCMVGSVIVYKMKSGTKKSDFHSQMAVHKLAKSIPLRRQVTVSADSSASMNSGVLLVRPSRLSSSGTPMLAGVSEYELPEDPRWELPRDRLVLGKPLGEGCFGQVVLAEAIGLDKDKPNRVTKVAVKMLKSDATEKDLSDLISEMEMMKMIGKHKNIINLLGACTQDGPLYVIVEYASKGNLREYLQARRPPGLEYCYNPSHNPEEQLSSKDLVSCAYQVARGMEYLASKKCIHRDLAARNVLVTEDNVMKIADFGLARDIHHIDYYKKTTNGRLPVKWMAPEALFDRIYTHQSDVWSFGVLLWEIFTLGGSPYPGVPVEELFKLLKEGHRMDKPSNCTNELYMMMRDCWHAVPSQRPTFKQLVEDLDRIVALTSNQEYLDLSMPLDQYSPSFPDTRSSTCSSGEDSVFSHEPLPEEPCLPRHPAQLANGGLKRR
Summary of the method: as §1

T1 sequence (P21802 22-821): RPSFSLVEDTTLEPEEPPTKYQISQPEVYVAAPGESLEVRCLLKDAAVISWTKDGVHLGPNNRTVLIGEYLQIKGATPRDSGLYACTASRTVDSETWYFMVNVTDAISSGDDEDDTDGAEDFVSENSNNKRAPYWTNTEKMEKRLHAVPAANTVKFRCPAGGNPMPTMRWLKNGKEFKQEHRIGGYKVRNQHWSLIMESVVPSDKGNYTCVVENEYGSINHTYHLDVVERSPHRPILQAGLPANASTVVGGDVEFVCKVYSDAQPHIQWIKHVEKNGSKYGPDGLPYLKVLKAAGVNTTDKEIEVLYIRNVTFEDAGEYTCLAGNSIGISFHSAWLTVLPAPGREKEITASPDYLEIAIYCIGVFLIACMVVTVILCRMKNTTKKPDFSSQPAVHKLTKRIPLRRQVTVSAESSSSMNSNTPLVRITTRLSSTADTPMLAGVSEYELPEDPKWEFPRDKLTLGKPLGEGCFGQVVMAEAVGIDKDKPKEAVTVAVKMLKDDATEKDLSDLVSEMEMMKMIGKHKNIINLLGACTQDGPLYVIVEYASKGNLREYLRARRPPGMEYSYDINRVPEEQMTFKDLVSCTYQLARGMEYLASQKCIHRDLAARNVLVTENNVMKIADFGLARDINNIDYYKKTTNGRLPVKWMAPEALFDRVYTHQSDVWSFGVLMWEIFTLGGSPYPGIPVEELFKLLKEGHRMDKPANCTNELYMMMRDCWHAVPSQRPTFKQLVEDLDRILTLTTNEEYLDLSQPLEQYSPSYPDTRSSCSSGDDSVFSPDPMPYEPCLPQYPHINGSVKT

Row | SMILES | Kd (FGFR2) [nM] | Kd (FGFR3) [nM] | Kd (FGFR4) [nM] | Kd (FGFR3 (V555M)) [nM] | Kd (FGFR1) [nM]
1 | CCNC1(C)CN(c2ccc(-c3n[nH]c4ccc(O[C@H](C)c5c(Cl)cncc5Cl)cc34)cn2)C1 [Example 239, 1-[5-[5-[(1R)-1-(3,5-dichloro-4-pyridyl)ethoxy]-1H-indazol-3-yl]-2-pyridyl]-N-ethyl-3-methyl-azetidin-3-amine] | 1 to 50 | 1 to 50 | 1 to 50 | 1 to 50 | 1 to 50
2 | C[C@@H](O)CNC1(C)CN(c2ncc(-c3n[nH]c4ccc(O[C@H](C)c5c(Cl)cncc5Cl)c(F)c34)cc2F)C1 [Example 169, (R)-1-((1-(5-(5-((R)-1-(3,5-dichloropyridin-4-yl)ethoxy)-4-fluoro-1H-indazol-3-yl)-3-fluoropyridin-2-yl)-3-methylazetidin-3-yl)amino)propan-2-ol] | > 1000 | 50 to 300 | 50 to 300 | 1 to 50 | 300 to 1000
3 | C[C@H](O)CNC1(C)CN(c2ncc(-c3n[nH]c4ccc(O[C@H](C)c5c(Cl)cncc5Cl)c(F)c34)cc2F)C1 [Example 176, (S)-1-((1-(5-(5-((R)-1-(3,5-dichloropyridin-4-yl)ethoxy)-4-fluoro-1H-indazol-3-yl)-3-fluoropyridin-2-yl)-3-methylazetidin-3-yl)amino)propan-2-ol] | > 1000 | 50 to 300 | 50 to 300 | 50 to 300 | 300 to 1000
4 | C[C@@H](Oc1ccc2[nH]nc(-c3cnc(N4CC(C)(N5CCCC5)C4)c(C#N)c3)c2c1F)c1c(Cl)cncc1Cl [Example 322, (R)-5-(5-(1-(3,5-dichloropyridin-4-yl)ethoxy)-4-fluoro-1H-indazol-3-yl)-2-(3-methyl-3-(pyrrolidin-1-yl)azetidin-1-yl)nicotinonitrile] | > 1000 | > 1000 | 50 to 300 | 300 to 1000 | > 1000
5 | Cc1ncc(Cl)c([C@@H](C)Oc2ccc3[nH]nc(-c4cnc(N5CC(C)(NC(C)C)C5)c(F)c4)c3c2)c1Cl [Example 221, 1-[5-[5-[(1R)-1-(3,5-dichloro-2-methyl-4-pyridyl)ethoxy]-1H-indazol-3-yl]-3-fluoro-2-pyridyl]-N-isopropyl-3-methyl-azetidin-3-amine] | 1 to 50 | 1 to 50 | 1 to 50 | 1 to 50 | 1 to 50
6 | C[C@@H](Oc1cc2c(-c3cnc(N4CC(C)(N5CCC5)C4)c(F)c3)n[nH]c2cc1F)c1c(Cl)cncc1Cl [Example 163, 3-[6-[3-(azetidin-1-yl)-3-methyl-azetidin-1-yl]-5-fluoro-3-pyridyl]-5-[(1R)-1-(3,5-dichloro-4-pyridyl)ethoxy]-6-fluoro-1H-indazole] | 1 to 50 | 1 to 50 | 1 to 50 | 1 to 50 | 1 to 50
7 | CCNC1(C)CN(c2ncc(-c3n[nH]c4ccc(O[C@H](C)c5c(Cl)cnc(C)c5Cl)cc34)cc2C#N)C1 [Example 40, 5-[5-[(1R)-1-(3,5-dichloro-2-methyl-4-pyridyl)ethoxy]-1H-indazol-3-yl]-2-[3-(ethylamino)-3-methyl-azetidin-1-yl]pyridine-3-carbonitrile] | 50 to 300 | 1 to 50 | 1 to 50 | 1 to 50 | 50 to 300
8 | C[C@@H](Oc1cc2c(-c3cnc(N4CC(C)(CN5CCCC5)C4)c(C#N)c3)n[nH]c2cc1F)c1c(Cl)cncc1Cl [Example 317, (R)-5-(5-(1-(3,5-dichloropyridin-4-yl)ethoxy)-6-fluoro-1H-indazol-3-yl)-2-(3-methyl-3-(pyrrolidin-1-ylmethyl)azetidin-1-yl)nicotinonitrile] | 50 to 300 | 1 to 50 | 1 to 50 | 1 to 50 | 50 to 300
9 | C[C@@H](Oc1ccc2[nH]nc(-c3cnc(N4CC(C)(N5CCOCC5)C4)c(F)c3)c2c1F)c1c(Cl)cncc1Cl [Example 183, (R)-4-(1-(5-(5-(1-(3,5-dichloro-pyridin-4-yl)ethoxy)-4-fluoro-1H-indazol-3-yl)-3-fluoropyridin-2-yl)-3-methylazetidin-3-yl)morpholine] | > 1000 | 50 to 300 | 50 to 300 | 50 to 300 | 300 to 1000
10 | C[C@@H](Oc1ccc2[nH]nc(-c3ccc(N4CC(C)(N5CCOCC5)C4)nc3)c2c1)c1c(Cl)cncc1Cl [Example 94, 4-[1-[5-[5-[(1R)-1-(3,5-dichloro-4-pyridyl)ethoxy]-1H-indazol-3-yl]-2-pyridyl]-3-methyl-azetidin-3-yl]morpholine] | 1 to 50 | 1 to 50 | 1 to 50 | 1 to 50 | 1 to 50
11 | C[C@@H](Oc1ccc2[nH]nc(-c3cnc(N4CC(C)(CN5CCCC5)C4)c(F)c3)c2c1F)c1c(Cl)cncc1Cl [Example 185, (R)-5-(1-(3,5-dichloropyridin-4-yl)ethoxy)-4-fluoro-3-(5-fluoro-6-(3-methyl-3-(pyrrolidin-1-ylmethyl)azetidin-1-yl)pyridin-3-yl)-1H-indazole] | 300 to 1000 | 50 to 300 | 50 to 300 | 50 to 300 | 300 to 1000
12 | C[C@@H](Oc1ccc2[nH]nc(-c3cnc(N4CC(C)(CP(C)(C)=O)C4)c(F)c3)c2c1)c1c(Cl)cncc1Cl [Example 121, (R)-((1-(5-(5-(1-(3,5-dichloropyridin-4-yl)ethoxy)-1H-indazol-3-yl)-3-fluoropyridin-2-yl)-3-methylazetidin-3-yl)methyl)dimethylphos-phine oxide] | 1 to 50 | 1 to 50 | 1 to 50 | 1 to 50 | 1 to 50
13 | C[C@H](Oc1ccc2[nH]nc(-c3cnc(N4C[C@@H](CS(C)(=O)=O)[C@@H]4C)c(F)c3)c2c1)c1c(Cl)cncc1Cl [Example 202, 5-((S)-1-(3,5-dichloropyridin-4-yl)ethoxy)-3-(5-fluoro-6-((2S,3R)-2-methyl-3-((meth-ylsulfonyl)meth-yl)azetidin-1-yl)pyridin-3-yl)-1H-indazole] | > 1000 | 50 to 300 | 50 to 300 | 1 to 50 | 300 to 1000
14 | C[C@@H](Oc1ccc2[nH]nc(-c3cnc(N4CC(C)(CP(C)(C)=O)C4)c(F)c3)c2c1F)c1c(Cl)cncc1Cl [Example 172, (R)-((1-(5-(5-(1-(3,5-dichloro-pyridin-4-yl)ethoxy)-4-fluoro-1H-inda-zol-3-yl)-3-fluoropyridin-2-yl)-3-methylazetidin-3-yl)methyl)dimethyl-phosphine oxide] | 50 to 300 | 50 to 300 | 50 to 300 | 1 to 50 | 300 to 1000
15 | C[C@@H](Oc1cc2c(-c3ccc(N4CC(C)(CN5CCCC5)C4)nc3)n[nH]c2cc1F)c1c(Cl)cncc1Cl [Example 188, (R)-5-(1-(3,5-dichloropyridin-4-yl)ethoxy)-6-fluoro-3-(6-(3-methyl-3-(pyrrolidin-1-ylmethyl)azetidin-1-yl)pyridin-3-yl)-1H-indazole] | 1 to 50 | 1 to 50 | 1 to 50 | 1 to 50 | 1 to 50
16 | C[C@@H](Oc1ccc2[nH]nc(-c3cnc(N4CC(C)(C(=O)NCCO)C4)c(F)c3)c2c1)c1c(Cl)cncc1Cl [Example 162, 1-[5-[5-[(1R)-1-(3,5-dichloro-4-pyridyl)ethoxy]-1H-indazol-3-yl]-3-fluoro-2-pyridyl]-N-(2-hydroxyethyl)-3-methyl-azetidine-3-carboxamide] | 1 to 50 | 1 to 50 | 1 to 50 | 1 to 50 | 1 to 50
17 | C[C@@H](Oc1ccc2[nH]nc(-c3ccc(N4CC(C)(CN5CCCC5)C4)nc3)c2c1F)c1c(Cl)cncc1Cl [Example 191, (R)-5-(1-(3,5-dichloropyridin-4-yl)ethoxy)-4-fluoro-3-(6-(3-methyl-3-(pyrrolidin-1-ylmethyl)azetidin-1-yl)pyridin-3-yl)-1H-indazole] | 300 to 1000 | 50 to 300 | 300 to 1000 | 1 to 50 | 300 to 1000
18 | C[C@@H](Oc1ccc2[nH]nc(-c3cnc(N4CC(C)(N5CCCC5)C4)c(F)c3)c2c1)c1c(Cl)cncc1Cl [Example 107, (R)-5-(1-(3,5-dichloropyridin-4-yl)ethoxy)-3-(5-fluoro-6-(3-methyl-3-(pyrrolidin-1-yl)azetidin-1-yl)pyridin-3-yl)-1H-indazole] | 1 to 50 | 1 to 50 | 1 to 50 | 1 to 50 | 1 to 50
19 | C[C@@H](Oc1ccc2[nH]nc(-c3cnc(N4CC(C)(CP(C)(C)=O)C4)c(C#N)c3)c2c1F)c1c(Cl)cncc1Cl [Example 323, (R)-5-(5-(1-(3,5-dichloropyridin-4-yl)ethoxy)-4-fluoro-1H-indazol-3-yl)-2-(3-((dimethyl-phosphoryl)methyl)-3-methylazetidin-1-yl)nicotinonitrile] | > 1000 | > 1000 | 1 to 50 | 300 to 1000 | > 1000
20 | C[C@@H](Oc1ccc2[nH]nc(-c3cnc(N4CC(C)(NCC5(O)CC5)C4)c(C#N)c3)c2c1)c1c(Cl)cncc1Cl [Example 120, (R)-5-(5-(1-(3,5-dichloropyridin-4-yl)ethoxy)-1H-indazol-3-yl)-2-(3-(((1-hydroxycyclopropyl)meth-yl)amino)-3-methylazetidin-1-yl)nicotinonitrile] | 50 to 300 | 1 to 50 | 1 to 50 | 1 to 50 | 1 to 50
